PubChem BioAssay AID330 (DTP/NCI, 2004)
Values joined by “and” are separate entries in the source; they are usually repeats but may differ in a detail not shown here. Identical values can stand only once. Toxic doses and inconclusive results are not listed.

Tested on: P388 leukemia ip, CD2F1 mice, survival T/C
Assay: NCI In Vivo Anticancer Drug Screen. Data for tumor model P388 Leukemia (intraperitoneal) in CD2F1 (CDF1) mice
Details: endpoint: median survival time, higher = longer survival
How it was run: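 Mice carrying the transplanted tumor received test compound or vehicle. Survival was recorded in each group, and the value is the treated-group measurement divided by that of the vehicle-treated control group.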

[1] = dose: 100.0 mg/kg/injection, schedule: Q01DX009 (ip), vehicle: saline with Tween-80
[2] = dose: 200.0 mg/kg/injection, schedule: Q01DX009 (ip), vehicle: saline with Tween-80
[3] = dose: 50.0 mg/kg/injection, schedule: Q01DX009 (ip), vehicle: saline with Tween-80
[4] = dose: 60.0 mg/kg/injection, schedule: Q01DX005 (ip), vehicle: saline
[5] = dose: 120.0 mg/kg/injection, schedule: Q01DX005 (ip), vehicle: saline
[6] = dose: 240.0 mg/kg/injection, schedule: Q01DX005 (ip), vehicle: saline
[7] = dose: 12.5 mg/kg/injection, schedule: Q01DX009 (ip), vehicle: saline with Tween-80
[8] = dose: 25.0 mg/kg/injection, schedule: Q01DX009 (ip), vehicle: saline with Tween-80
[9] = dose: 60.0 mg/kg/injection, schedule: Q01DX005 (ip), vehicle: Klucel (hydroxypropylcellulose) (HPC)
[10] = dose: 120.0 mg/kg/injection, schedule: Q01DX005 (ip), vehicle: Klucel (hydroxypropylcellulose) (HPC)

Cc1ccc(S(=O)(=O)O/N=C(/C#N)c2ccccc2)cc1
T/C (dose: 50.0 mg/kg/injection, schedule: Q01DX009 (ip), vehicle: saline): 101 % of control | T/C [1]: 102 % of control | T/C (dose: 100.0 mg/kg/injection, schedule: Q01DX009 (ip), vehicle: saline): 99 % of control | T/C [2]: 101 % of control | T/C (dose: 200.0 mg/kg/injection, schedule: Q01DX009 (ip), vehicle: saline): 105 % of control | T/C (dose: 400.0 mg/kg/injection, schedule: Q01DX009 (ip), vehicle: saline with Tween-80): 97 % of control

CCCCCCCCCCCCCCCC(=O)N(CC#CCN(C(=O)CCCCCCCCCCCCCCC)C(C)CCCN(CC)CC)C(C)CCCN(CC)CC (stereo unspecified)
T/C (dose: 25.0 mg/kg/injection, schedule: Q01DX009 (ip), vehicle: other): 97 % of control | T/C (dose: 50.0 mg/kg/injection, schedule: Q01DX009 (ip), vehicle: other): 101 % of control

COc1ccc(NC2=NC(C)(CO)CS2)cc1 (stereo unspecified)
T/C [3]: 116 % of control | T/C [1]: 96 % of control | T/C [2]: 107 % of control

c1ccc(CNSC(c2ccccc2)(c2ccccc2)c2ccccc2)cc1
T/C (dose: 100.0 mg/kg/injection, schedule: Q04DX002 (ip), vehicle: saline with Tween-80): 101 % of control | T/C (dose: 200.0 mg/kg/injection, schedule: Q04DX002 (ip), vehicle: saline with Tween-80): 102 % of control | T/C (dose: 400.0 mg/kg/injection, schedule: Q04DX002 (ip), vehicle: saline with Tween-80): 92 % of control

O=C1CCC(=O)C1
T/C [4]: 100 % of control | T/C [5]: 93 % of control | T/C [6]: 105 % of control

C[n+]1[se]c2ccccc2c1Cl
T/C (dose: 3.12 mg/kg/injection, schedule: Q01DX009 (ip), vehicle: Klucel (hydroxypropylcellulose) (HPC)): 105 % of control | T/C (dose: 6.25 mg/kg/injection, schedule: Q01DX009 (ip), vehicle: Klucel (hydroxypropylcellulose) (HPC)): 99 % of control | T/C (dose: 12.5 mg/kg/injection, schedule: Q01DX009 (ip), vehicle: Klucel (hydroxypropylcellulose) (HPC)): 99 % of control and 89 % of control

CSC(=CC(=O)c1ccccc1)SC
T/C [7]: 104 % of control | T/C [8]: 105 % of control | T/C [3]: 114 % of control | T/C [1]: 110 % of control

CC1=C(C(=O)Nc2cc(C)ccc2C)C(c2cccc([N+](=O)[O-])c2)C(C(=O)Nc2cc(C)ccc2C)=C(C)N1
T/C [9]: 88 % of control | T/C [10]: 89 % of control

COc1cc(Cc2nc3n(O)cc(-c4ccccc4)nc-3c(=N)n2)cc(OC)c1OC
T/C [7]: 104 % of control | T/C [8]: 108 % of control | T/C [3]: 104 % of control

C[C@H](C(O)CC(=O)C(C)(C)O)[C@H]1CC[C@@]2(C)[C@@H]3CC[C@H]4C(C)(C)[C@@H](OC5OC(COC6OC(CO)C(O)C(O)C6O)C(O)C(O)C5O)CC[C@]4(C)C3=CC[C@]12C (stereo partly specified)
T/C (dose: 9.25 mg/kg/injection, schedule: Q01DX005 (ip), vehicle: saline): 100 % of control | T/C (dose: 18.5 mg/kg/injection, schedule: Q01DX005 (ip), vehicle: saline): 100 % of control | T/C (dose: 37.0 mg/kg/injection, schedule: Q01DX005 (ip), vehicle: saline): 112 % of control | T/C (dose: 74.0 mg/kg/injection, schedule: Q01DX005 (ip), vehicle: saline): 105 % of control

Nc1ccc(CCCC(=O)NCc2cccnc2)cc1
T/C (dose: 60.0 mg/kg/injection, schedule: Q01DX005 (ip), vehicle: saline with Tween-80): 106 % of control | T/C (dose: 120.0 mg/kg/injection, schedule: Q01DX005 (ip), vehicle: saline with Tween-80): 96 % of control | T/C (dose: 240.0 mg/kg/injection, schedule: Q01DX005 (ip), vehicle: saline with Tween-80): 91 % of control

S=c1[nH]ccn1-c1ccccc1Cl
T/C [9]: 101 % of control | T/C [10]: 106 % of control | T/C (dose: 240.0 mg/kg/injection, schedule: Q01DX005 (ip), vehicle: Klucel (hydroxypropylcellulose) (HPC)): 109 % of control

O=NN(CCCl)C(=O)NC1CCCCC1
T/C (dose: 1.0 mg/kg/injection, schedule: Q01DX009 (ip), vehicle: saline with Tween-80): 118 % of control | T/C (dose: 4.0 mg/kg/injection, schedule: Q01DX009 (ip), vehicle: saline with Tween-80): 168 % of control | T/C (dose: 7.2 mg/kg/injection, schedule: Q04DX003 (ip), vehicle: saline + alcohol): 204 % of control | T/C (dose: 8.0 mg/kg/injection, schedule: Q01DX009 (ip), vehicle: saline with Tween-80): 218 % of control and 240 % of control | T/C (dose: 12.0 mg/kg/injection, schedule: Q04DX003 (ip), vehicle: carboxymethylcellulose (CMC)): 154 % of control | T/C (dose: 12.0 mg/kg/injection, schedule: Q04DX003 (ip), vehicle: saline + alcohol): 339 % of control | T/C (dose: 16.0 mg/kg/injection, schedule: Q01DX009 (ip), vehicle: saline with Tween-80): 272 % of control | T/C (dose: 18.0 mg/kg/injection, schedule: Q04DX003 (ip), vehicle: carboxymethylcellulose (CMC)): 190 % of control and 191 % of control | T/C (dose: 20.0 mg/kg/injection, schedule: Q04DX003 (ip), vehicle: saline + alcohol): 412 % of control | T/C (dose: 27.0 mg/kg/injection, schedule: Q04DX003 (ip), vehicle: carboxymethylcellulose (CMC)): 227 % of control and 243 % of control | T/C (dose: 33.3 mg/kg/injection, schedule: Q04DX003 (ip), vehicle: saline + alcohol): 119 % of control | T/C (dose: 40.0 mg/kg/injection, schedule: Q04DX003 (ip), vehicle: carboxymethylcellulose (CMC)): 304 % of control and 538 % of control | T/C (dose: 64.0 mg/kg/injection, schedule: Q01DX001 (ip), vehicle: saline + alcohol): 250 % of control and 265 % of control | T/C (dose: 128.0 mg/kg/injection, schedule: Q01DX001 (ip), vehicle: saline + alcohol): 168 % of control

O=C(O)CCOCCC(=O)O
T/C (dose: 50.0 mg/kg/injection, schedule: Q01DX005 (ip), vehicle: saline): 97 % of control | T/C (dose: 100.0 mg/kg/injection, schedule: Q01DX005 (ip), vehicle: saline): 97 % of control | T/C (dose: 200.0 mg/kg/injection, schedule: Q01DX005 (ip), vehicle: saline): 97 % of control

COc1cccc(OC)c1SSCCN
T/C (dose: 100.0 mg/kg/injection, schedule: Q04DX002 (ip), vehicle: suspension in saline): 107 % of control | T/C (dose: 200.0 mg/kg/injection, schedule: Q04DX002 (ip), vehicle: suspension in saline): 111 % of control

O=C(c1cccc(C(=O)N2CCCC2)n1)N1CCCC1
T/C [4]: 102 % of control | T/C [5]: 102 % of control | T/C [6]: 109 % of control
